Data set [1] can be described thus: Acute toxicity (mortality during 7 days, oral). The conditions noted are these: mouse, in vivo, male CD1 mice, fasted 16 hours, mortality noted during 7 days. On the procedure:
The test is carried out on male mice (CD1 Charles Rivers) weighing 22 to 24 g, which have gone without food for 16 hours. The products are administered by oral route at a dose of 1000, 500, 250, 125, 62, 31 and 16 mg/kg. The mortality is noted during the 7 days following the treatment.

The subject of data set [2] is isolated ileum of a guinea-pig. The experiment in a line: Test on the isolated ileum of a guinea-pig (agonist activity). The class given is cell-based. The conditions noted are these: Cavia porcellus, read-out: pD2 (negative logarithm of the dose which produces 50% of the maximum effect) (converted). On the procedure: Pieces of ileum are removed from guinea-pigs which have been killed by decapitation. The isolated ileum is placed in 10 cm^3 of Tyrode's solution at 37° C. and aerated by a mixture of oxygen (95%) and carbon dioxide (5%). The contractions due to the products are recorded using a sensor connected to a polygraph. The products being tested are added, in concentrations comprised between 1.10^-3 M and 1.10^-8 M/1.
The products presenting a contracting effect are tested vis-a-vis atropine and hexamethonium to establish if the activity is of "muscarinic" or "nicotinic" type.
The agonist activity is expressed in pD2 (negative logarithm of the dose which produces 50% of the maximum effect).

A short description of a further data set: Diarrheic activity. Also on record: species or system mice. The conditions noted are these: mouse, in vivo. On the procedure: The test is carried out on male mice (CD1 Charles Rivers) weighing 25 to 30 g, and without food for 6 hours. The product, dissolved at 5% in methocel, is administered by oral route, using an oesophagus probe.
Control animals receive only the excipient (20 ml/kg).
After treatment, the animals are put separately into cages, the bottom of which is covered with absorbent paper, and are observed for 30, 60, 120 and 180 minutes.
The absorbent sheets of paper are changed after each observation.
The consistency of the faeces is evaluated according to the Randall and Baruth method (Arch. Int. Pharmacodyn., 220, 94, 1976) in accordance with the following scale of values.
1: slightly soft faeces with or without a damp ring,
2: slightly soft faeces with presence of a well-defined damp ring,
3: soft faeces with presence of a large damp ring,
4: faeces without consistency with presence of a very large camp ring.
For each product, the dose has been noted which cause diarrohea in 50% of the animals according to the Miller and Tainter method (Proc. Soc. Exp. Biol. Med., 57, 261, 1944).

The test system of data set [3] is male mice (CD1 Charles Rivers). The experiment in a line: Hypothermic activity. The class given is in vivo. The conditions noted are these: for ED (-1 C body temperature): Mus musculus, read-out: Effective dose (-1° C.). On the procedure:
The test is carried out on male mice (CD1 Charles Rivers) weighing 25 to 30 g, and without food for 6 hours.
The body temperature is noted using a thermocouple placed in the rectum to about 1.5 cm and connected to an electrical temperature recorder. […]
The degree of hypothermia is evaluated as the difference between the treated animals and the control animals and the dose necessary to reduce the body temperature by 1° C. is determined.
The duration of action of the products is determined by using doses capable of reducing the temperature by 1° to 1.2° C.

Setting [4] is: isolated guinea-pig ileum, contraction, Tyrode's solution at 37° C.
The mark [5] stands for this setting: sc, sub-cutaneous route, dose necessary to reduce body temperature by 1° C.
Setting [6] is: oral route, dose necessary to reduce body temperature by 1° C.

The structures appear in SMILES notation. Counter-ions that a name gives are not always drawn. Like-named read-outs stand apart in the source and are kept apart here.

5 molecules from US5183893A, “1-azabicycloalkane derivatives, their preparation process and their use as medicaments” (Roussel Uclaf, priority 1988, dated 1993) can be followed below.

Usually LD50 stands for the dose at which mortality reaches 50%. Higher therefore signals lower toxicity. The ED50 is the midpoint of the dose-response relation. `CC(=O)OC1CN2CCC1CC2` (stereo not shown) [Aceclidine, HCl]: in data set [1], the 50% lethal dose (LD50) at 168 h is 250 mg/kg. For the same molecule, the EC50 in data set [2] is 105 nM. Further, in “Diarrheic activity” (male CD1 mice, fasted 6 hours, oral, observed up to 180 minutes, read-out: ED50 (dose which causes diarrhoea in 50% of the animals)), the ED50 at 3 h is 4 mg/kg. In addition, the “duration of action: body temperature difference from controls” value in data set [3] (2.50 mg/kg sub-cutaneous, 30 min) was -1.0 °C; in data set [3] (2.50 mg/kg sub-cutaneous, 60 min), -0.1 °C; in data set [3] (2.50 mg/kg sub-cutaneous, 120 min) it was “+0.1 °C”; in data set [3] (2.50 mg/kg sub-cutaneous, 180 min), “+0.1 °C”; in data set [3] (7.50 mg/kg oral, 30 min), -1.1 °C; in data set [3] (7.50 mg/kg oral, 60 min), -0.3 °C. The “duration of action: body temperature difference from controls” value in data set [3] (7.50 mg/kg oral, 180 min) was “+0.1 °C”. Besides, the ED (-1 C body temperature) came to 6.4 mg/kg in data set [3] (po) and 2.1 mg/kg in data set [3] (sc).

In turn, `CON=CC1CN2CCC1CC2` (stereo not shown) [Example 1, 1-azabicyclo-[2,2,2]-octan-3-carboxaldehyde O-methyloxime] showed a median lethal dose (LD50) at 168 h in data set [1] of 30 mg/kg. The EC50 in data set [2] (setting [4]) was 50.1 nM. In “Diarrheic activity” (po), the ED50 at 3 h came out at 1.1 mg/kg. Also, the “duration of action: body temperature difference from controls” value in data set [3] (0.25 mg/kg oral, 30 min) was -1.1 °C; in data set [3] (0.25 mg/kg oral, 60 min), -1.0 °C; in data set [3] (0.25 mg/kg sub-cutaneous, 30 min), -1.2 °C; in data set [3] (0.25 mg/kg sub-cutaneous, 60 min), -1.1 °C. Further, the ED (-1 C body temperature) in data set [3] (setting [5]) worked out at 0.18 mg/kg; in data set [3] (setting [6]), 0.19 mg/kg.

With `CCON=CC1CN2CCC1CC2` (stereo not shown) [Example 2, 1-azabicyclo-[2,2,2]-octan-3-carboxaldehyde O-ethyloxime], the median lethal dose (LD50) at 168 h in data set [1] was 150 mg/kg.

For the molecule `C#CCON=CC1CN2CCC1CC2` (stereo not shown) [Example 3, 1-azabicyclo-[2,2,2]-octan-3-carboxaldehyde O-2-propynyloxime], the LD50 at 168 h in data set [1] was 40 mg/kg.

Take `CON=C(C)C1CN2CCC1CC2` (stereo not shown) [Example 4, (1-azabicyclo-[2,2,2]-octan-3-yl)-ethanone O-methyloxime hydrochloride]: in data set [1], the median lethal dose (LD50) at 168 h was determined as 75 mg/kg. Further, the EC50 in data set [2] (setting [4]) is 95.5 nM. The ED50 at 3 h in the data set “Diarrheic activity” (po) is 3 mg/kg. Moreover, the ED (-1 C body temperature) in data set [3] (setting [5]) and in data set [3] (setting [6]) was 0.33 mg/kg throughout.
